Data taken from patent publication US9644002B2, “Allosteric modulators of EGFR and constitutively active mutants” (YALE UNIVERSITY, priority 2013, dated 2017).
“Also recorded” adds a separate entry of the source. Bridge positions count the residues as written; N and C are the ends. Square brackets hold non-standard residues; d marks the D form. Ends that are not written are not given here. R8 = C=CCCCCCC[C@@](C)(N)C(=O)O; S5 = C=CCCC[C@](C)(N)C(=O)O

How the values were obtained:
EGFR = EGFR (Homo sapiens, UniProt P00533); assay: Immunoblot of EGFR phosphorylation in A431 cells; type: cell-based; settings: 10 μM, Akt and Erk1/2 positions
Procedure: A431 cells were treated with 10 μM of the ligand shown for 2 hours, stimulated with 10 ng/mL EGF, then lysed, immunoblotted, and visualized. Plots illustrate the increase or decrease in the intensity of the indicated phospho-protein band between treated and untreated cells. Error bars representing standard error of the mean over at least 4 trials.
Activation of EGFR upon growth factor binding leads to a well characterized pattern of Tyr and Ser/Thr phosphorylation events that initiate downstream signaling networks (Olayioye, et al., 2000, EMBO J., 19, 3159). Molecules that block growth factor binding to the extracellular domain, or ATP binding to the intracellular kinase domain, inhibit the phosphorylation of both EGFR and downstream factors such as Erk and Akt (Yarden, et al., 2012, Nat. Rev. Cancer, 12, 553). Immunoblots were used to evaluate whether the effects of JM-A-derived ligands on the viability of EGFR-dependent cell lines correlated with their effects on EGFR phosphorylation and the activation of downstream factors. Specifically, phosphorylation was probed at EGFR tyrosines 845, 1045, 1068, 1086, and 1173, as well as for phospho-Akt (Ser473) and phospho-Erk1/2 (T202/Y204) (FIG. 19).

[1] = system: A431, H2030, H3255, H1975 and SK-N-MC cells; assay: Cell viability across the cell line panel; type: cell-based; settings: for effect on cell viability: all cell lines tested, 18 h incubation
Description: Error bars show standard error of the mean.

wtEGFR = biological target: T1, wtEGFR (Homo sapiens, UniProt P00533); assay: Sequestration of EGFR from CHO-K1 lysates by biotinylated peptides on streptavidin beads; type: binding; settings: 25 μM biotinylated peptide, 1 hour
T1 construct: expressed in transfected cells; host or cells: CHO-K1 (transient transfection; lysate used)
Procedure: CHO-K1 lysates were treated with 25 μM of each biotinylated peptide shown for 1 hour, then incubated with streptavidin-coated beads overnight. Sequestered proteins were eluted, electrophoresed, and immunoblotted to detect EGFR. Band intensities were measured using ImageJ (Schneider et al., 2012, Nat. Meth., 9: 671).
Two additional experiments were performed to evaluate whether the E1^S-induced viability changes and decreases in EGFR and Erk/Akt phosphorylation resulted from a direct interaction with the EGFR JM segment. […] Each biotinylated analog (25 μM) was incubated for 1 hour with lysates from wtEGFR-expressing cells, and then incubated with Mag-Sepharose Streptavidin Beads overnight. A mock reaction lacking a biotinylated analog was run alongside. After washing, the sequestered proteins were eluted, resolved by SDS-PAGE (10%), probed with a commercial anti-EGFR antibody, visualized using a horseradish peroxidase-tagged mouse anti-rabbit secondary antibody, and quantified with chemiluminescent detection. […] Little or no EGFR was sequestered when no biotinylated peptide was added (mock), providing additional support for a direct interaction between the hydrocarbon-stapled peptide E1^S and the juxtamembrane segment of wild type EGFR.

[2] = system: EGFR CCH-1 juxtamembrane coiled coil; assay: Bipartite tetracysteine display (ReAsH, TIRF) of intra-dimer coiled coil formation; type: cell-based; settings: CHO cells; for change of EGF-induced ReAsH fluorescence: EGFR CCH-1, 1 μM ligand 1 hour, 100 ng/mL EGF
Procedure: FIG. 21 is a graph depicting the results of example experiments conducted to monitor EGFR intra-dimer coiled coil formation using TIRF and bipartite tetracysteine display. CHO cells were transiently transfected with EGFR CCH-1, treated with 1 μM of the indicated ligand for 1 hour, stimulated with 100 ng/mL EGF for 30 minutes, and labeled with ReAsH (Scheck et al., 2012, ACS Chem Biol, 7: 1367). […] Error bars represent standard error of the mean. *p<0.05, **p<0.01, ***p<0.001, ****p<0.0001, one-way ANOVA with Bonferroni post-analysis accounting for multiple comparisons.
Experiments were conducted using CHO cells expressing an EGFR variant (CCH-1) with a cysteine pair within the JM-A whose location supports ReAsH binding and fluorescence upon EGF-induced coiled coil assembly 24. […] CHO cells transiently expressing the EGFR variant CCH-1 on the cell surface were exposed to native and hydrocarbon-stapled peptides, stimulated with EGF, incubated with ReAsH, and the fluorescence increase due to ReAsH quantified using total internal reflectance fluorescence microscopy (TIR-FM). […] Identical results were observed when cells were treated first with EGF and then with the indicated peptides. None of the peptides tested had any effect on the extent of ReAsH fluorescence in the absence of EGF. […] This work validates the juxtamembrane segment as a viable allosteric target for inhibitor design.

Substance	pattern of phosphorylation changes over all probed positions (EGFR)	effect on cell viability [1]	sequestration of full length wild type EGFR from cell lysates (wtEGFR)	change of EGF-induced ReAsH fluorescence [2]	also measured
TE-64562: polypeptide containing the EGFR juxtamembrane segment fused to HIV Tat (Boran et al., 2012) (YGRKKRRQRRRVRKRTLRRLLQERELVE) [reference compound]	paralleled	moderate decreases in viability	–	–	effect on cell viability after 72 h ([1]; 72 h incubation): potency is mitigated significantly
^BT1^S: biotinylated analog of T1^S (VRKRT[S5]RRL[S5]QERELVE; staple 6-10 (inferred); also: biotinylated)	–	–	did not	–	–
^BJM-WT: biotinylated analog of JM-WT (VRKRTLRRLLQERELVE; also: biotinylated)	–	–	did not	–	–
^BE1ΔL^S: biotinylated analog of E1ΔL^S (VRKR[R8]ARRAAQ[S5]RELVE; staple 5-12; also: biotinylated, site of biotin not given here)	–	–	sequestered; also recorded: sequester wtEGFR	–	–
E1ΔL^S: hydrocarbon-stapled VRKRZARRAAQXRELVE (SEQ ID NO: 19; E1ΔL), leucines replaced by alanine (VRKR[R8]ARRAAQ[S5]RELVE; staple 5-12)	little or no decrease in phosphorylation at any position	more modest effects on cell viability	–	significant loss in ReAsH fluorescence	change of EGF-induced ReAsH fluorescence at a lower concentration ([2]; EGFR CCH-1, lower concentration than 1 μM): effectively reduced the ReAsH signal
JM-WT: unmodified EGFR JM-A peptide VRKRTLRRLLQERELVE (SEQ ID NO: 1)	–	none of the cells are sensitive; also recorded: inability to decrease the viability	–	unchanged	–
